Source: patent US20150011528A1, “PHENYLIMIDE-CONTAINING BENZOTHIAZOLE DERIVATIVE OF ITS SALT AND PHARMACEUTICAL COMPOSITION COMPRISING THE SAME” (YUHAN CORPORATION, priority 2011, published 2015)

Tested on: A549 cells
Experiment: Cell Migration Assay (transwell, laminin)
Format: cell-based
Details: laminin 10 μg/mL in lower well, test compounds 0.39˜100 μM, 6 hours at 37° C.
Method: Cell migration was measured with a 24-well transwell having a polycarbonate membrane (8.0 μm pore size, Costar) at the bottom of the upper chamber. Each lower well was treated with laminin (10 μg/mL) and test compounds (0.39˜100 μM) along with a serum-free RPMI1640 medium. A549 cells (Korean Cell Line Bank) were suspended in a serum-free RPMI1640 medium at a concentration of 1×10^6 cells/mL and then the test compounds were added thereto at the indicated concentrations. Each resulting solution (100 μL) was added to the upper chamber. The cells were cultured at 37° C. for 6 hours in a CO2 incubator. The upper chamber was taken out and then the cells were fixed with PBS containing 70% methyl alcohol for 10 minutes, followed by washing with PBS twice. The cells were stained with hematoxylin (Sigma) for 10 minutes and then washed with distilled water. The non-migrated cells were removed from the upper portion of the polycarbonate membrane with a cotton swab. The membranes were excised and separated from the chamber, and then mounted to a slide using a gel mount reagent (Biomeda, USA). The migrated cells (attached to the lower face of the membrane) were counted at three randomly selected sites under a microscope (×20). The cell counting was performed with the Image J program. From the counted cell numbers, each IC50 value was calculated by non-linear regression curve fit using the “GraphPad Prism” program.
The cells are pulled by laminin residing in the lower chamber and then passed through the polycarbonate membrane, so as to attach to the lower face of the membrane.

| SMILES | IC50 [µM] | IC50 (Homo sapiens) [µM] |
| --- | --- | --- |
| CCC(C(=O)O)n1c(=NC(=O)c2ccc(F)c(C(F)(F)F)c2)sc2cc(F)c(F)cc21 (stereo not drawn) [Example 471] | 32 |  |
| CC(C(=O)O)n1c2c(sc1=NC(=O)c1cccc(C(F)(F)F)c1)CCCC2 (stereo not drawn) [Example 295, 2-(2-(3-(trifluoromethyl)benzoylimino)-4,5,6,7-tetrahydrobenzo[d]thiazol-3(2H)-yl)propionic acid] |  | 60 |
| CCC(C(=O)O)n1c(=NC(=O)c2ccc(C)cc2)sc2cc([N+](=O)[O-])ccc21 (stereo not drawn) [Example 23, 2-{2-[(4-methylbenzoyl)imino]-6-nitrobenzo[d]thiazol-3(2H)-yl}butanoic acid] |  | 23.7 |
| CCC(C(=O)O)n1c(=NC(=O)c2cccc(Cl)c2)sc2c(F)cc(F)cc21 (stereo not drawn) [Example 462, 2-(2-((3-chlorobenzoyl)imino)-5,7-difluorobenzo[d]thiazol-3(2H)-yl)butanoic acid] |  | 43 |
| CCC(C(=O)O)n1c(=NC(=O)c2cc(Cl)cc(Cl)c2)sc2cc(F)c(F)cc21 (stereo not drawn) [Example 468, 2-(2-((3,5-dichlorobenzoyl)imino)-5,6-difluorobenzo[d]thiazol-3(2H)-yl)butanoic acid] |  | 41 |
| Cc1cccc2c1sc(=NC(=O)c1cccc(C(F)(F)F)c1)n2C(C)C(=O)O (stereo not drawn) [Example 314, 2-(7-methyl-2-(3-(trifluoromethyl)benzoylimino)benzo[d]thiazol-3(2H)-yl)propionic acid] |  | 46 |
| CCC(C(=O)O)n1c(=NC(=O)c2cccc(Br)c2)sc2ccccc21 (stereo not drawn) [Example 83, 2-[2-(3-bromobenzoylimino)benzo[d]thiazol-3(2H)-yl]butanoic acid] |  | 12.3 |
| COc1cccc2sc(=NC(=O)c3cccc(Cl)c3)n(C(C)C(=O)O)c12 (stereo not drawn) [Example 282, 2-(2-(3-chlorobenzoylimino)-4-methoxybenzo[d]thiazol-3(2H)-yl)propionic acid] |  | 25 |
| COc1ccc2c(sc(=NC(=O)c3cccc(Cl)c3)n2CC(=O)O)c1F [Example 396, 2-(2-((3-chlorobenzoyl)imino)-7-fluoro-6-methoxybenzo[d]thiazol-3(2H)-yl)acetic acid] |  | 43 |
| CC(C(=O)O)n1c(=NC(=O)c2ccc(C(F)(F)F)cc2)sc2ccccc21 (stereo not drawn) [Example 186, 2-(2-(4-(trifluoromethyl)benzoylimino)benzo[d]thiazol-3(2H)-yl)propionic acid] |  | 101 |
| Cc1ccc(C(=O)N=c2sc3c(C)cccc3n2C(C)C(=O)O)cc1 (stereo not drawn) [Example 103, 2-[7-methyl-2-(4-methylbenzoylimino)benzo[d]thiazol-3(2H)-yl]propionic acid] |  | 28 |
| CC(C(=O)O)n1c(=NC(=O)c2cccc(Cl)c2)sc2c(F)cccc21 (stereo not drawn) [Example 373, 2-(2-((3-chlorobenzoyl)imino)-7-fluorobenzo[d]thiazol-3(2H)-yl)propionic acid] |  | 92.4 |
| COc1ccc2c(c1)sc(=NC(=O)c1cccc(C(F)(F)F)c1)n2C(C)C(=O)O (stereo not drawn) [Example 189, 2-(6-methoxy-2-((3-(trifluoromethyl)benzoyl)imino)benzo[d]thiazol-3(2H)-yl)propionic acid] |  | 87 |
| CCOc1ccc2c(c1)sc(=NC(=O)c1cccc(C(F)(F)F)c1)n2C(C)C(=O)O (stereo not drawn) [Example 192, 2-(6-ethoxy-2-((3-(trifluoromethyl)benzoyl)imino)benzo[d]thiazol-3(2H)-yl)propionic acid] |  | 33 |
| CCC(C(=O)O)n1c(=NC(=O)c2ccc(C)cc2)sc2cc(C)c(F)cc21 (stereo not drawn) [Example 16, 2-{5-fluoro-6-methyl-2-[(4-methylbenzoyl)imino]benzo[d]thiazol-3(2H)-yl}butanoic acid] |  | 11.8 |
| CCC(C(=O)O)n1c(=NC(=O)c2ccc(C)cc2)sc2cc(F)ccc21 (stereo not drawn) [Example 153, 2-[6-fluoro-2-(4-methylbenzoylimino)benzo[d]thiazol-3(2H)-yl]butanoic acid] |  | 31.1 |
| CC(C(=O)O)n1c(=NC(=O)c2cccc(Cl)c2)sc2c(C(F)(F)F)cccc21 (stereo not drawn) [Example 270, 2-(2-(3-chlorobenzoylimino)-7-(trifluoromethyl)benzo[d]thiazol-3(2H)-yl)propionic acid] |  | 1 |
| CCC(C(=O)O)n1c(=NC(=O)c2ccc(F)c(Cl)c2)sc2cc(F)c(F)cc21 (stereo not drawn) [Example 467, 2-(2-((3-chloro-4-fluorobenzoyl)imino)-5,6-difluorobenzo[d]thiazol-3(2H)-yl)butanoic acid] |  | 19 |
| Cc1cc2sc(=NC(=O)c3cccc(Cl)c3)n(C(C)C(=O)O)c2cc1C (stereo not drawn) [Example 212, 2-(2-((3-chlorobenzoyl)imino)-5,6-dimethylbenzo[d]thiazol-3(2H)-yl)propionic acid] |  | 33 |
| CCC(C(=O)O)n1c(=NC(=O)c2ccc(C)cc2)sc2cc(OC(F)(F)F)ccc21 (stereo not drawn) [Example 14, 2-{2-[(4-methylbenzoyl)imino]-6-(trifluoromethoxy)benzo[d]thiazol-3(2H)-yl]butanoic acid] |  | 21.5 |

| SMILES | IC50 [µM] | IC50 (Homo sapiens) [µM] |
| --- | --- | --- |
| CC(C(=O)O)n1c(=NC(=O)c2cccc(C(F)(F)F)c2)sc2c(F)cccc21 (stereo not drawn) [Example 346, 2-(7-fluoro-2-((3-(trifluoromethyl)benzoyl)imino)benzo[d]thiazol-3(2H)-yl)propionic acid] |  | 124 |
| O=C(O)Cn1c(=NC(=O)c2cccc(Cl)c2)sc2c(F)cccc21 [Example 347, 2-(2-((3-chlorobenzoyl)imino)-7-fluorobenzo[d]thiazol-3(2H)-yl)acetic acid] |  | 109 |
| CC(C(=O)O)n1c(=NC(=O)c2cccc(C(F)(F)F)c2)sc2c(F)c(F)c(F)cc21 (stereo not drawn) [Example 380, 2-(5,6,7-trifluoro-2-((3-(trifluoromethyl)benzoyl)imino)benzo[d]thiazol-3(2H)-yl)propionic acid] |  | 36.2 |
| CCC(C(=O)O)n1c(=NC(=O)c2cc(F)cc(C(F)(F)F)c2)sc2cc(F)c(F)cc21 (stereo not drawn) [Example 469] | 66 |  |
| CCCCCCC(C(=O)O)n1c(=NC(=O)c2ccc(C)cc2)sc2ccccc21 (stereo not drawn) [Example 147, 2-[2-(4-methylbenzoylimino)benzo[d]thiazol-3(2H)-yl]octanoic acid] |  | 5.7 |
| COc1ccc2c(c1)sc(=NC(=O)c1cccc(Cl)c1)n2C(C)C(=O)O (stereo not drawn) [Example 53, 2-{2-[(3-chlorobenzoyl)imino]-6-methoxybenzo[d]thiazol-3(2H)-yl}propionic acid] |  | 59 |
| CCC(C(=O)O)n1c(=NC(=O)c2ccc(C)cc2)sc2ccc(F)cc21 (stereo not drawn) [Example 90, 2-[5-fluoro-2-(4-methylbenzoylimino)benzo[d]thiazol-3(2H)-yl]butanoic acid] |  | 31.6 |
| CC(C(=O)O)n1c(=NC(=O)c2ccc(F)c(Cl)c2)sc2cc(F)c(F)cc21 (stereo not drawn) [Example 466, 2-(2-((3-chloro-4-fluorobenzoyl)imino)-5,6-difluorobenzo[d]thiazol-3(2H)-yl)propionic acid] |  | 49 |
| CCC(C(=O)O)n1c(=NC(=O)c2ccc(C)cc2)sc2cc(C)c(C)cc21 (stereo not drawn) [Example 6, 2-{5,6-dimethyl-2-[(4-methylbenzoyl)imino]benzo[d]thiazol-3(2H)-yl}butanoic acid] |  | 26.5 |
| O=C(O)Cn1c(=NC(=O)c2cccc(Cl)c2)sc2ccccc21 [Example 123, 2-[2-(3-chlorobenzoylimino)benzo[d]thiazol-3(2H)-yl]acetic acid] |  | 40.1 |
| CCC(C(=O)O)n1c(=NC(=O)c2ccc(C)cc2)sc2ccc(C)cc21 (stereo not drawn) [Example 100, 2-[5-methyl-2-(4-methylbenzoylimino)benzo[d]thiazol-3(2H)-yl]butanoic acid] |  | 43 |
| CCC(C(=O)O)n1c(=NC(=O)c2cccc(Cl)c2)sc2cc(C(F)(F)F)ccc21 (stereo not drawn) [Example 173, 2-(2-((3-chlorobenzoyl)imino)-6-(trifluoromethyl)benzo[d]thiazol-3(2H)-yl)butanoic acid] |  | 16.5 |
| CCC(C(=O)O)n1c(=NC(=O)c2cccc(Cl)c2)sc2c(F)c(F)c(F)cc21 (stereo not drawn) [Example 417, 2-(2-((3-chlorobenzoyl)imino)-5,6,7-trifluorobenzo[d]thiazol-3(2H)-yl)butanoic acid] |  | 22 |
| CCC(C(=O)O)n1c(=NC(=O)c2cccc(Cl)c2)sc2cc3c(cc21)OCO3 (stereo not drawn) [Example 240, 2-(6-((3-chlorobenzoyl)imino)-[1,3]dioxolo[4′,5′:4,5]benzo[1,2-d]thiazol-7(6H)-yl)butanoic acid] |  | 16 |
| Cc1ccc2c(c1)sc(=NC(=O)c1cccc(C(F)(F)F)c1)n2C(C)C(=O)O (stereo not drawn) [Example 195, 2-(6-methyl-2-((3-(trifluoromethyl)benzoyl)imino)benzo[d]thiazol-3(2H)-yl)propionic acid] |  | 87 |
| Cc1ccc(C(=O)N=c2sc3ccccc3n2C(C(=O)O)c2ccccc2)cc1 (stereo not drawn) [Example 152] | 22.7 |  |
| CCC(C(=O)O)n1c(=NC(=O)c2ccc(OC)cc2)sc2ccccc21 (stereo not drawn) [Example 60, 2-[2-(4-methoxybenzoylimino)benzo[d]thiazol-3(2H)-yl]butanoic acid] |  | 26.9 |
| CCC(C(=O)O)n1c(=NC(=O)c2ccc(C)cc2)sc2ccc(Cl)cc21 (stereo not drawn) [Example 105, 2-[5-chloro-2-(4-methylbenzoylimino)benzo[d]thiazol-3(2H)-yl]butanoic acid] |  | 19 |
| CCOc1ccc2c(sc(=NC(=O)c3cccc(Cl)c3)n2C(CC)C(=O)O)c1F (stereo not drawn) [Example 427, 2-(2-((3-chlorobenzoyl)imino)-6-ethoxy-7-fluorobenzo[d]thiazol-3(2H)-yl)butanoic acid] |  | 18 |
